“And” between values parts separate entries of the source, which are not always exact repeats. Equal entries are not always repeated. “Also recorded” adds a separate entry of the source. Where two headings read alike, the source gives them in different places.
What was measured:
[1] = tested on: HBV (ayw subtype, genotype D) replicon in HepG2.2.15 cells; assay: microbe, parasite or virus in culture; format: cell-based, Hepatitis B virus; details: Hepatitis B virus
[2] = tested on: HBV (pHBV1.2× adr) in transfected HepG2 cells; assay: microbe, parasite or virus in culture; format: cell-based, Hepatitis B virus; details: Hepatitis B virus, HepG2, 144 h; HBV1.2× adr transfected cells, 6 days; read-out: IC50, HBV DNA secretion
[3] = tested on: HBV (pHBV1.2× adr) in transfected HepG2 cells; assay: microbe, parasite or virus in culture; format: cell-based, Hepatitis B virus; details: Hepatitis B virus, HepG2, 144 h; HBV1.2× adr transfected cells, 6 days; read-out: IC50, intracellular HBV DNA
[4] = tested on: HBV pgRNA/precore RNA in HepG2.2.15 cells; format: cell-based, Hepatitis B virus
Method: Fig. 1 Effect of FDA-approved compounds on HBV replication. a Schematic depiction of the primary screening analysis. HepG2.2.15 cells, which were stably transfected with HBV replicons, were treated with 978 FDA-approved drugs (1 μM) for 3 days. Entecavir (ETV) (1 μM) served as positive control. […] Quantitative RT-PCR was performed after 6 days of incubation. d Effect of the 19 candidates on intracellular HBV capsid assembly. Huh-7 cells were transfected with pCDNA3-Core and exposed after 12 h to the 19 candidates (1 μM) for 36 h. The cells were lysed and assembled HBV core particles were isolated by sucrose step gradient ultracentrifugation, resolved on 1% agarose gels, and subjected to immunoblot analysis with anti-HBV core antibody.
Quantitative RT-PCR with primers that detect three HBV regions (R1, R2, and R3, Supplementary Table 1) was used to measure HBV transcription. This RT-PCR detects pgRNA and precore RNA (3.5 kB), two HBV surface-encoding RNAs (2.5 kB and 2.1 kB), and HBx-encoding RNA (0.7 kB)[55]. PCR conditions were 95 °C for 10 min initially, then 50 cycles of 95 °C for 30 s, 60 °C for 60 s and 72 °C for 30 s, and finally 1 cycle of 95 °C for 60 s, 55 °C for 30 s and 95 °C for 30 s.
a Schematic depiction of the R1, R2, and R3 regions of the HBV genome that were targeted by
quantitative RT-PCR to quantitate the transcription of pgRNA, two HBV surface RNAs, and HBx RNA.
pGL3/HBV pgRNA promoter or pGL3/HBV sRNA promoter. The data shown in (b – d) represent two

[5] = target: HBV core protein (pCDNA3-Core, Y118 wild-type) in Huh-7 cells (Hepatitis B virus genotype C, UniProt P0C6H6); assay: cell-based; format: cell-based
[6] = target: T1, Cp149 (truncated HBV core protein) (Hepatitis B virus genotype D subtype ayw, UniProt P03146); assay: Electron microscopy of HBV capsid assembly in vitro; format: biochemical
T1 construct: Cp149 (amino acids 1–149) is a truncated form of the HBV core protein; made in house; host or cells: Escherichia coli
Method: The particles were negatively stained with 2% uranyl acetate. Scale bars = 200 nm and 100 nm. TEM magnifications, ×49,000 and ×75,000.
Five microliters of the solution containing the assembled HBV core particles was negatively stained by incubation on a carbon-coated grid for 1 min, followed by washing with water and staining with 2% uranyl acetate for 1 min. The grids were examined with a Tecnai G2 F30 S-TWIN transmission electron microscope.

[7] = tested on: HBsAg in HepG2.2.15 cells; assay: Secreted HBsAg ELISA, HepG2.2.15 cells; format: cell-based, Hepatitis B virus
Method: Secreted HBsAg (f, i respectively) was quantified by ELISA.
An HBsAg ELISA kit (KA0286, Abnova) was used to quantify HBsAg protein. Briefly, culture media were incubated in individual wells of the capture plates for 2 h. After washing, horseradish peroxidase-labeled rabbit anti-HBV surface antibody was added, followed by incubation for an additional 2 h. The substrate solution was added for 15–60 min and absorbance at 450 nm was measured.

[8] = tested on: total HBV core protein in Huh-7 cells; format: cell-based, Hepatitis B virus
Method: the indicated times. The cells were lysed and assembled HBV core particles were isolated by sucrose step-gradient ultracentrifugation, resolved on 1 % agarose gels, and subjected to immunoblot analysis with anti-HBV core antibody. Total intracellular HBV core protein was also determined by immunoblot analysis in the cell lysates. Core mRNA levels were measured by quantitative RT-PCR. The data

[9] = tested on: HepG2 cells transfected with pHBV1.2×; details: 0.1–10 μM, 6 days
[10] = tested on: HBV (genotype D) in PXB mice; details: mouse, in vivo
[11] = tested on: HBV (genotype D) in HepG2-NTCP cells; assay: In vitro HBV infection model, HepG2-NTCP cells: secreted HBV DNA
Method: (§1) To isolate the secreted HBV DNA, culture media were collected and centrifuged at 15,000 × g to remove debris. The medium was diluted 1:1 with phosphate-buffered saline (PBS), and 1 M NaOH solution was added to a final concentration of 0.1 M. The mixture was incubated at 37 °C for 1 h. Protein was denatured by adding 2 M Tris-HCl (pH 7.5) solution to a final concentration of 0.2 M and incubating the mixture at 98 °C for 5 min. The protein precipitate was removed by centrifugation at 15,000 × g, and the supernatant was subjected to PCR with an HBV DNA primer and probe set (Supplementary Table 1). […] To isolate intracellular HBV DNA, the cells were lysed on ice with lysis buffer (50 mM Tris-HCl, pH 7.5, 1 mM EDTA, 1% NP40) for 10 min. After removing cell debris and nuclei by centrifugation at 15,000 × g, the supernatant was treated with micrococcal nuclease (0.25 U per μL, M0247, New England Biolabs) at 37 °C for 1 h. The micrococcal nuclease was then inactivated by adding EGTA to a final concentration of 10 mM. Thereafter intracellular HBV DNA was extracted with a G-spin^TM total kit (17046, Intron). The isolated intracellular HBV DNA was subjected to PCR with an HBV DNA primer and probe set (Supplementary Table 1). cccDNA was isolated by the Hirt extraction method[54]. […]

[12] = tested on: HBV (genotype D) in Huh-7-NTCP cells; assay: In vitro HBV infection model, Huh-7-NTCP cells: secreted HBV DNA
Method: as §1

[13] = tested on: HBV cccDNA in HepG2-NTCP cells; assay: In vitro HBV infection model, HepG2-NTCP cells: intracellular cccDNA
Method: HepG2 and Huh-7 cells permanently expressing NTCP were generated by infecting them with an NTCP-encoding recombinant retrovirus and isolating GFP-expressing cells.
The isolated intracellular HBV DNA was subjected to PCR with an HBV DNA primer and probe set (Supplementary Table 1). cccDNA was isolated by the Hirt extraction method[54]. Briefly, the cells were lysed in SDS lysis buffer (50 mM Tris-HCl, pH 8.0, 10 mM EDTA, 150 mM NaCl, 1% SDS), and the lysates were mixed with KCl to a final concentration of 0.5 M. After incubation at 4 °C for 30 min, each lysate was centrifuged and the supernatant was extracted three times with phenol and once with chloroform. The DNA was then recovered by ethanol precipitation, and treated with T5 nuclease (10 U per μg for 0.5 h, M0363, New England Biolabs), and the enzyme was subsequently heat-denatured at 70 °C. The isolated cccDNA was subjected to PCR with a cccDNA primer and probe set (Supplementary Table 1).
HepG2-NTCP and Huh-7-NTCP cells were cultured in 12-well plates with the indicated compound(s) for 4 h, after which the cells were infected with HBV particles (10^7 viral genome equivalent per mL, genotype D) and treated with the indicated compound(s) for another 16 h. […]
Quantitative PCR with an HBV DNA primer and probe set was used to measure intracellular
cccDNA. The data are expressed as means ± SDs. […]

[14] = tested on: HBV rcDNA in HepG2-NTCP cells; assay: In vitro HBV infection model, HepG2-NTCP cells: intracellular HBV rcDNA
Method: as §1

[15] = tested on: HBV rcDNA in Huh-7-NTCP cells; assay: In vitro HBV infection model, Huh-7-NTCP cells: intracellular HBV rcDNA
Method: as §1

[16] = HepG2.2.15, 144 h, read-out: Relative secreted HBV DNA level (Folds), AVERAGE
[17] = HepG2.2.15, 144 h, read-out: Relative secreted HBV DNA level (Folds), individual samples
[18] = Huh-7, read-out: Relative intensity (Folds), intracellular capsid, AVERAGE
[19] = Huh-7, read-out: Relative intensity (Folds), intracellular capsid, individual samples

HBV core protein (pCDNA3-Core, Y118 wild-type) in Huh-7 cells, sequence (P0C6H6 whole entry, the tested form may be a part): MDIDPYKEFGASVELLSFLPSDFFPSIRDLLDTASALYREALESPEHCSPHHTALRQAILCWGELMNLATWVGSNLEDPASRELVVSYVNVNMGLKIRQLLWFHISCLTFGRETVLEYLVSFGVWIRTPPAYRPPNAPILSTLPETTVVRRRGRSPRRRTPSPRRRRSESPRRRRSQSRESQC
T1 sequence (P03146 1-149): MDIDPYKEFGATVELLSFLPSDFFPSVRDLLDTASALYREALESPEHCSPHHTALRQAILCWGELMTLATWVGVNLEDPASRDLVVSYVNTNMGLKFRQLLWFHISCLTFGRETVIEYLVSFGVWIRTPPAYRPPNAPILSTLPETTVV

Cc1cc(C2CCCCC2)n(O)c(=O)c1 [Ciclopirox, 6-cyclohexyl-1-hydroxy-4-methyl-2(1 H)-pyridone]
inhibition at 1 µM ([1]; HepG2.2.15, 72 h, read-out: % of inhibition (ETV =100%), initial screening (3days)): 142% | inhibition at 1 µM ([1]; HepG2.2.15, 144 h, read-out: % of inhibition (ETV =100%), confirmation (6days)): 88.6% | IC50 ([1]; HepG2.2.15, 144 h, read-out: IC50, HBV DNA secretion): 880 ± 70 nM | activity at 0.1 µM [1, 16]: 102% | activity at 0.2 µM [1, 16]: 81.1% | activity at 0.5 µM [1, 16]: 52.1% | activity at 1 µM [1, 16]: 51.6% | activity at 2 µM [1, 16]: 29.1% | activity at 5 µM [1, 16]: 23.5% | activity at 10 µM [1, 16]: 4.49% | activity at 0.1 µM [1, 17]: 102% | activity at 0.2 µM [1, 17]: 83% | activity at 0.5 µM [1, 17]: 48.1% | activity at 1 µM [1, 17]: 49.9% | activity at 2 µM [1, 17]: 29% | IC50 [2]: 750 ± 150 nM | IC50 [3]: 800 ± 180 nM | HBV transcripts levels [4]: no effect | intracellular HBV capsid assembly [5]: inhibited HBV capsid assembly; also recorded: affected intracellular HBV capsid assembly | activity at 0.1 µM [5, 18]: 92.1% | activity at 0.5 µM [5, 18]: 95.1% | activity at 1 µM [5, 18]: 82.9% | activity at 5 µM [5, 18]: 20.4% | activity at 10 µM [5, 18]: 2.39% | activity at 0.1 µM [5, 19]: 90% | activity at 0.5 µM [5, 19]: 92.6% | activity at 5 µM [5, 19]: 17.9% | activity at 10 µM [5, 19]: 2.39% | HBV capsid morphology (EM) [6]: HBV capsid morphology was altered | HBsAg production [7]: no effect | Total denatured HBV core protein ([8]; 36 h): not affected | total core protein ([8]; treatment time increased): decreased | cytotoxicity [9]: no significant cytotoxicity | Serum HBV DNA, AVERAGE [10]: 6.24 log copies/mL | Serum HBV DNA, individual samples [10]: 6.248 log copies/mL and 5.238 log copies/mL and 7.238 log copies/mL | cccDNA, AVERAGE [10]: 0.2214 log copies/cell | cccDNA, individual samples [10]: 0.22 log copies/cell and 0.29 log copies/cell and 0.16 log copies/cell | HBV core protein levels in the liver ([10]; po): significantly reduced HBV core protein levels in the liver | HBeAg levels ([10]; po): significantly decreased HBeAg levels | Serum ALT levels ([10]; po): decreased | intrahepatic cccDNA ([10]; po): significantly reduced the amount of intrahepatic cccDNA | serum HBV DNA levels ([10]; po): lowered serum HBV DNA levels significantly | serum HBV DNA levels, combined with TDF ([10]; po): these effects were enhanced when it was combined with TDF | secretion of HBV DNA [11]: dropped markedly | secretion of HBV DNA [12]: dropped markedly | cccDNA levels [13]: dropped markedly | intracellular relaxed circular DNA levels [14]: dropped markedly | intracellular relaxed circular DNA levels [15]: dropped markedly

Reference: article PMC6522524 (Nature Communications, 2019)
